Laboratory results taken from US10501440B2, “Heteroarylcarboxamide derivatives as plasma kallikrein inhibitors” (Boehringer Ingelheim International GmbH, priority 2017, dated 2019).
Where two headings read alike, the source gives them in different places.

Key:
Format in all cases: biochemical
KLKB1 [1] = target: T1, KLKB1 (Homo sapiens (Human), UniProt P03952); assay: Inhibition of KLKB1 using an endpoint assay (fluorogenic substrate H-Pro-Phe-Arg-AMC)
Protocol: (§1) The ability of compounds of formula (I) to inhibit plasma kallikrein (KLKB1), Factor XIIa (FXIIa), Factor XIa (FXIa), Factor Xa (FXa), Factor IIa (alpha-thrombin; FIIa), plasmin, trypsin, tissue kallikrein 1 (KLK1), Factor Vila (FVIIa), or FVIIa complexed with Tissue Factor, phospholipids and CaCl2 (FVIIa/TF/PL/CaCl2) was determined using the following biochemical assays in assay buffer (100 mM Tris, 150 mM NaCL, adjusted to a pH of 7.8 with HCl, and containing 0.1% (w/v) BSA and 0.05% (v/v) Tween20) in the presence of 1% (v/v) DMSO:
Evaluation of the Inhibition of KLKB1 Using an Endpoint Assay
Human KLKB1 (0.01 U/mL; Enzyme Research Laboratories) or rat KLKB1 (0.625 nM; produced in-house) was incubated for 1 h at room temperature with 0.10 μM fluorogenic substrate H-Pro-Phe-Arg-AMC (11295 from Bachem) and various concentrations of the test compound in assay buffer. Subsequently, PPACK 11 (Calbiochem) was added as a stop solution to achieve a final concentration of 1 μM and fluorescence was measured using an Envision Reader (PerkinElmer) with the wavelength excitation setting of 355 nm and the wavelength emission setting of 460 nm.
(§2) The number of the compound corresponds to the number of the Example in the experimental section.

KLKB1 [2] = target: T1, KLKB1; assay: Inhibition of human KLKB1 in dextran sulfate activated human PPP
Protocol: Evaluation of the Inhibition of Human KLKB1 in Dextran Sulfate Activated Human PPP
Platelet poor plasma (PPP) obtained from human wholeblood, anticoagulated with EDTA, was activated with 12.5 μg/mL dextransulfate for 7 min on ice. The activated PPP was incubated with various concentrations of the test compound in assay buffer. Afterwards the mixture was incubated at 24° C. with 0.25 mM fluorogenic substrate H-Pro-Phe-Arg-AMC (11295 from Bachem) and measurements were performed in a kinetic interval every 2nd minute for 16 min using a Spectramax M5 (Molecular Devices) with the following settings of the wavelength excitation of 350 nm and wavelength emission of 450 nm.
as §2

KLKB1 [3] = target: T1, KLKB1; assay: Inhibition of KLKB1 in kaolin activated human PPP
Protocol: Evaluation of the Inhibition of KLKB1 in Kaolin Activated Human PPP
Platelet poor plasma (PPP) obtained from human wholeblood, anticoagulated with Na-Citrat, was incubated with various concentrations of the test compound together with either 25, 75, 250, or 750 μg/mL kaolin in assay buffer for 20 min at 37° C. such that for each kaolin dose used a concentration response was obtained for the test compound.
as §2

KLKB1 [4] = target: T1, KLKB1; assay: Inhibition of KLKB1 (Ki), kinetic assay; details: 24° C., 0.25 mM H-Pro-Phe-Arg-AMC; IC50 corrected for KM of substrate
Protocol: as §1
Evaluation of the Inhibition of KLKB1 (Ki)
Measurements were performed in a kinetic interval every 2nd minute for 16 min using a Spectramax M5 (Molecular Devices) with the following settings of the wavelength excitation of 350 nm and wavelength emission of 450 nm.
as §2
Calculation of pIC50 and Pki Values
The pIC50 values were then fitted using a four-parametric fitting procedure using GraphPad Prism (version 6; GraphPad Software, Inc.).
Where the IC50 is in molar and the KM value in mM.

[5] = endpoint assay, 1 h at room temperature, 0.10 μM H-Pro-Phe-Arg-AMC, read-out: IC50
[6] = human platelet poor plasma (EDTA) activated with 12.5 μg/mL dextransulfate, 24° C., read-out: IC50
[7] = human platelet poor plasma (Na-Citrat), 25, 75, 250 or 750 μg/mL kaolin, global fit, read-out: IC50
[8] = human platelet poor plasma (Na-Citrat), 25, 75, 250 or 750 μg/mL kaolin, global fit, read-out: IC90

T1 sequence (P03952 391-638 limits assumed): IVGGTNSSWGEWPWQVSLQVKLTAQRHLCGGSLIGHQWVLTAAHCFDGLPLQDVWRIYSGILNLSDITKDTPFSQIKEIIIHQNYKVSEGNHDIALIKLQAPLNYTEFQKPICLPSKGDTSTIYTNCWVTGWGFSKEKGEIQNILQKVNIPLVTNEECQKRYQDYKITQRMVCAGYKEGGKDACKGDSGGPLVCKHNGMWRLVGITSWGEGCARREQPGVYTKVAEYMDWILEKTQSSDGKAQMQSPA
T1 sequence (P03952 20-390 partner limits assumed): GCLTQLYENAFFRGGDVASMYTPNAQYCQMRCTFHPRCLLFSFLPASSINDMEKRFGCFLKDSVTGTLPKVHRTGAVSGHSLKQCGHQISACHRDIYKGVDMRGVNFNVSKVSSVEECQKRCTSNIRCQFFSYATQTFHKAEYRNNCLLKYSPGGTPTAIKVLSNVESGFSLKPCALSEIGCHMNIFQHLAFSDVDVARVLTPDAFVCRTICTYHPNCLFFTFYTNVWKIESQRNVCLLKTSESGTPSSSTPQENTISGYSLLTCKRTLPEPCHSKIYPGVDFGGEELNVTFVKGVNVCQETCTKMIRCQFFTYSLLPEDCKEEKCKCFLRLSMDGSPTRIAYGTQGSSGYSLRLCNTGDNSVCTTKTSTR

Row | Compound | IC50 (KLKB1 [1]; [5]) | IC50 (KLKB1 [2]; [6]) | IC90 (KLKB1 [3]) | IC50 (KLKB1 [3]; [7]) | Ki (KLKB1 [4]) | IC50 (KLKB1 [1]) | IC50 (KLKB1 [2]) | IC50 (KLKB1 [3]) | IC90 (KLKB1 [3]; [8])
1 | Cc1nc(N2CC3C(C2)C3(F)F)ccc1Cn1cc(C(=O)N[C@@H]2CCc3c2ccnc3N)cn1 (stereo partly drawn) [Example 9, N-[(5R)-1-Amino-5H,6H,7H-cyclopenta[c]pyridin-5-yl]-1-[(6-{6,6-difluoro-3-azabicyclo[3.1.0]hexan-3-yl}-2-methylpyridin-3-yl)methyl]-1H-pyrazole-4-carboxamide] | 0.6 nM | 18.1 nM | 89.5 nM | 14 nM | 0.4 nM |  |  |  | 
2 | Cc1nc(N2CC3CC3C2)ccc1Cn1cc(C(=O)N[C@@H]2CCc3c2ccnc3N)cn1 (stereo partly drawn) [Example 1, N-[(5R)-1-Amino-5H,6H,7H-cyclopenta[c]pyridin-5-yl]-1-[(6-{3-azabicyclo[3.1.0]hexan-3-yl}-2-methylpyridin-3-yl)methyl]-1H-pyrazole-4-carboxamide] |  |  | 199 nM |  | 0.3 nM | 0.5 nM | 54.1 nM | 19 nM | 
3 | Cc1nc(N2CC3CC3C2)ncc1Cn1cc(C(=O)N[C@@H]2CCc3c2ccnc3N)cn1 (stereo partly drawn) [Example 11] | 1.7 nM | 50.3 nM |  | 23.9 nM | 1.5 nM |  |  |  | 232 nM
4 | Cc1nc(N2CC3C(C2)C3(F)F)ccc1Cn1cc(C(=O)N[C@@H]2CCc3c2ccnc3N)c(C(F)(F)F)n1 (stereo partly drawn) [Example 7] | 1.1 nM |  |  | 17.9 nM | 1.9 nM |  |  |  | 199 nM
5 | Cc1cc2c(c(N)n1)CC[C@H]2NC(=O)c1cn(Cc2ccc(N3CC4CC4C3)nc2C)nc1C (stereo partly drawn) [Example 15, N-[(5R)-1-Amino-3-methyl-5H,6H,7H-cyclopenta[c]pyridin-5-yl]-1-[(6-{3-azabicyclo[3.1.0]hexan-3-yl}-2-methylpyridin-3-yl)methyl]-3-methyl-1H-pyrazole-4-carboxamide] | 0.5 nM |  |  |  | 0.4 nM |  |  |  | 
6 | Cc1nc(N2CC3CC3C2)ccc1Cn1cc(C(=O)N[C@@H]2CCc3c2ccnc3N)c(C)n1 (stereo partly drawn) [Example 3] | 0.7 nM |  |  | 20.1 nM | 0.3 nM |  |  |  | 238 nM
7 | Cc1cc2c(c(N)n1)CC[C@H]2NC(=O)c1cnn(Cc2cnc(N3CC4CC4C3)nc2C)c1 (stereo partly drawn) [Example 17, N-[(5R)-1-Amino-3-methyl-5H,6H,7H-cyclopenta[c]pyridin-5-yl]-1-[(2-{3-azabicyclo[3.1.0]hexan-3-yl}-4-methylpyrimidin-5-yl)methyl]-1H-pyrazole-4-carboxamide] | 1 nM |  | 511 nM | 52.2 nM | 0.5 nM |  |  |  | 
8 | Cc1nc(N2CCC3(CC3)C2)ccc1Cn1cc(C(=O)N[C@@H]2CCc3c2ccnc3N)cn1 [Example 14] | 2 nM | 80.3 nM |  |  | 1.1 nM |  |  |  | 
9 | Cc1nc(N2C[C@@H]3[C@H](CO)[C@@H]3C2)ccc1Cn1cc(C(=O)N[C@@H]2CCc3c2ccnc3N)cn1 [Example 12] | 1.9 nM | 46.7 nM |  |  | 0.6 nM |  |  |  | 
10 | Cc1nc(N2CC3CC3C2)ncc1Cn1cc(C(=O)N[C@@H]2CCc3c2ccnc3N)nn1 (stereo partly drawn) [Example 16, N-[(5R)-1-Amino-5H,6H,7H-cyclopenta[c]pyridin-5-yl]-1-[(2-{3-azabicyclo[3.1.0]hexan-3-yl}-4-methylpyrimidin-5-yl)methyl]-1H-1,2,3-triazole-4-carboxamide] | 5.3 nM |  |  |  | 2.2 nM |  |  |  | 
11 | Cc1cc2c(c(N)n1)CC[C@H]2NC(=O)c1cnn(Cc2ccc(N3CC4CC4C3)nc2C)c1 (stereo partly drawn) [Example 2] | 0.3 nM |  |  | 16.6 nM | 0.3 nM |  |  |  | 134 nM
12 | Cc1cc2c(c(N)n1)CC[C@H]2NC(=O)c1cnn(Cc2ccc(N3CC4C(C3)C4(F)F)nc2C)c1 (stereo partly drawn) [Example 10, N-[(5R)-1-Amino-3-methyl-5H,6H,7H-cyclopenta[c]pyridin-5-yl]-1-[(6-{6,6-difluoro-3-azabicyclo[3.1.0]hexan-3-yl}-2-methylpyridin-3-yl)methyl]-1H-pyrazole-4-carboxamide] | 0.4 nM |  | 96.2 nM | 16.2 nM | 0.4 nM |  |  |  | 
13 | Cc1nc(N2CC3CC3C2)ccc1Cn1cc(C(=O)N[C@@H]2CCc3c2ccnc3N)c(C(F)(F)F)n1 (stereo partly drawn) [Example 4] | 0.8 nM |  |  | 18 nM | 0.4 nM |  |  |  | 446 nM
14 | Cc1cc2c(c(N)n1)CC[C@H]2NC(=O)c1cn(Cc2cnc(N3CC4CC4C3)nc2C)nn1 (stereo partly drawn) [Example 18, N-[(5R)-1-Amino-3-methyl-5H,6H,7H-cyclopenta[c]pyridin-5-yl]-1-[(2-{3-azabicyclo[3.1.0]hexan-3-yl}-4-methylpyrimidin-5-yl)methyl]-1H-1,2,3-triazole-4-carboxamide] | 1.2 nM |  |  |  | 0.5 nM |  |  |  | 
15 | Cc1nc(N2CC3CC3C2)ccc1Cn1cc(C(=O)N[C@@H]2CCc3c2ccnc3N)nn1 (stereo partly drawn) [Example 5] | 0.8 nM | 61.2 nM |  |  | 0.4 nM |  |  |  | 
16 | Cc1nc(N2C[C@@H]3[C@H](C#N)[C@@H]3C2)ccc1Cn1cc(C(=O)N[C@@H]2CCc3c2ccnc3N)cn1 [Example 13, N-[(5R)-1-Amino-5H,6H,7H-cyclopenta[c]pyridin-5-yl]-1-({6-[(1R,5S,6R)-6-cyano-3-azabicyclo[3.1.0]hexan-3-yl]-2-methylpyridin-3-yl}methyl)-1H-pyrazole-4-carboxamide] | 0.5 nM | 32.3 nM |  |  | 0.3 nM |  |  |  | 
